# Measurements as given in US20060040884A1, “Antisense oligonucleotides directed to genes regulated by trapoxin-induced HDAC inhibition” (priority 2001, published 2006).
# Square brackets hold non-standard residues; d marks the D form. Peptide text beside a SMILES is read from it. ξ: configuration not given here. Aoe(9ξ) = N[C@@H](CCCCCC(=O)C1CO1)C(=O)O; dPip = O=C(O)[C@H]1CCCCN1
# Columns and labels:
# H1299 cells [1] = test: Additional microarray analysis of RhoA, RhoB, RhoC expression in TPX-treated H1299 cells; format: cell-based, human; conditions: H1299 cells treated with 30 nm TPX
# Procedure: Microarray analysis is performed essentially as described in Welsh, J. B. Cancer Res. 61 5974-8 (2001). Poly (A)+ RNA is prepared from H1299 cells treated with TPX or DMSO for 0, 6, and 24 h. RNA is also prepared from 136 transformed cell lines. Labelled cDNA is prepared and hybridized to HU6800 or U95a oligonucleotide arrays (Affymetrix, Santa Clara, Calif.). The arrays are scanned on an Affymetrix confocal scanner and analyzed with GENECHIP 3.1 software (Affymetrix). T-test of the results is done.
# H1299 cells [2] = test: Northern blot analysis of transcripts in TPX-treated H1299 cells; format: cell-based, human
# Procedure: Northern Blotting. […] RNA is separated by electrophoresis on denaturing agarose gels and transferred to nylon membranes. Membranes are hybridized with random hexanucleotide-primed ^32P-labeled DNA fragments that are prepared from the RhoB gene, using standard protocols.
# A subset of genes on Incyte cDNA arrays that were differentially expressed in response to HDAC inhibition by TPX treatment were analyzed using Northern blot analyses to confirm that the level of these transcripts changed in response to HDAC inhibition. Total RNA that was isolated from TPX-treated H1299 cells for 0, 6 and 18 h was hybridized with probes that were prepared from sequences of 8 differentially expressed transcripts, including G9 sialidase, IPP isomerase, p21^waf1, Interferon γ-inducible IP-30 (GILT), Hsp 70, urokinase plasminogen activator receptor, and KIAA0797. Although there were differences in the absolute changes in transcript levels that were determined by Northern analysis versus the arrays, the directional trend in the differential expression in response to TPX was confirmed for all of the genes tested.
# […] RNA is separated by electrophoresis on denaturing agarose gels and transferred to nylon membranes. […]
# Total RNA is isolated from H1299 cells treated for 6 h with 30 nM TPX or DMSO using Trizol reagent (Life Technologies). The RNA samples are analyzed by Northern blots using conventional methods. […]
# RhoB promoter = RhoB promoter luciferase reporter assay in transfected H1299 cells treated with TPX
compound,measurement,setting,value
"O=C(CCCCC[C@@H]1NC(=O)[C@H]2CCCCN2C(=O)[C@H](Cc2ccccc2)NC(=O)[C@H](Cc2ccccc2)NC1=O)C1CO1 (some centres unmarked) [TPX, Trapoxin A] (cyclo(FF[dPip][Aoe(9ξ)]))",Expression of RhoA (additional microarray analysis),H1299 cells [1],unchanged
same,Expression of RhoC (additional microarray analysis),H1299 cells [1],unchanged
same,RhoB upregulation (additional microarray analysis),H1299 cells [1],approximately 8 fold
same,RhoB mRNA level (Northern analysis),"H1299 cells [2]; 30 nM, 6 h",up-regulated
same,"Directional trend in differential expression vs arrays (Northern; G9 sialidase, IPP isomerase, p21waf1, IP-30, Hsp 70, UpaR, KIAA0797)","H1299 cells [2]; TPX 0, 6 and 18 h",confirmed
same,Induction of luciferase activity driven by the RhoB promoter,"RhoB promoter; 30 nM TPX 24 h, normalized to DMSO",about 10 fold
same,Effect of insertion of three nucleotides (AAA) between CCAAT and TATA boxes on TPX induction,"RhoB promoter; 30 nM TPX vs 0.1% DMSO, 24 h",no effect
same,Induction of RhoB promoter 5′ deletion constructs (luciferase activity),RhoB promoter; all constructs generated,induced by TPX to a similar extent
